Results as given in patent US20230382924A1, “MODULATORS OF CYSTIC FIBROSIS TRANSMEMBRANE CONDUCTANCE REGULATOR” (VERTEX PHARMACEUTICALS INCORPORATED, priority 2020, published 2023).

How the values were obtained:
Format in all cases: cell-based
[1] = molecular target: T1, F508del (Homo sapiens, UniProt P13569, DEL508-508); experiment: 3T3 assay: membrane potential optical assay for F508del correction in NIH 3T3 cells; conditions: for Emax: NIH3T3, read-out: 3T3 Max Activity
T1 construct: expressed in transfected cells
Description: 1. Membrane Potential Optical Methods for Assaying F508del Modulation Properties of Compounds
The assay utilizes fluorescent voltage sensing dyes to measure changes in membrane potential using a fluorescent plate reader (e.g., FLIPR III, Molecular Devices, Inc.) as a readout for increase in functional F508del in NIH 3T3 cells. The driving force for the response is the creation of a chloride ion gradient in conjunction with channel activation by a single liquid addition step after the cells have previously been treated with compounds and subsequently loaded with a voltage sensing dye.
2. Identification of Corrector Compounds
To identify correctors of F508del, a single-addition HTS assay format was developed. This HTS assay utilizes fluorescent voltage sensing dyes to measure changes in membrane potential on the FLIPR III as a measurement for increase in gating (conductance) of F508del in F508del NIH 3T3 cells. The F508del NIH 3T3 cell cultures were incubated with the corrector compounds at a range of concentrations for 18-24 hours at 37° C., and subsequently loaded with a redistribution dye. The driving force for the response is a Cl^− ion gradient in conjunction with channel activation with forskolin in a single liquid addition step using a fluorescent plate reader such as FLIPR III.
Bath Solution #1: (in mM) NaCl 160, KCl 4.5, CaCl2) 2, MgCl2 1, HEPES 10, pH 7.4 with NaOH.
Chloride-free bath solution: Chloride salts in Bath Solution #1 (above) are substituted with gluconate salts.
NIH3T3 mouse fibroblasts stably expressing F508del are used for optical measurements of membrane potential. The cells are maintained at 37° C. in 5% CO2 and 90% humidity in Dulbecco's modified Eagle's medium supplemented with 2 mM glutamine, 10% fetal bovine serum, 1×NEAA, b-ME, 1×pen/strep, and 25 mM HEPES in 175 cm^2 culture flasks. For all optical assays, the cells were seeded at ˜20,000/well in 384-well matrigel-coated plates. For the correction assays, the cells are cultured at 37° C. with and without compounds for 16-24 hours.

[2] = molecular target: T2, CFTR (Homo sapiens, UniProt P13569); experiment: Membrane Potential Dye, Enteroid Assay A; conditions: for EC50: read-out: Ent. A EC50
In short: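 Signal is reported as % Activity relative to a triple CFTR modulator control (3 μM + 3 μM + 300 nM acute). Read-out: membrane potential fluorescence (20 μM methyl oxonol) monitored for 15 min after chloride-free stimulation. Dye loading took 25 min at room temperature in Bath 1 buffer containing CaCC blockers.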

[3] = molecular target: T2, CFTR; experiment: Membrane Potential Dye, Enteroid Assay B; conditions: for EC50: read-out: Ent. B EC50
In short: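 Enteroid cells loaded 25 min at room temperature with 20 μM methyl oxonol plus 30 μM CaCCinh-A01 and 30 μM Chicago Sky Blue, then switched to chloride-free gluconate buffer. Chloride transport was started by chloride-free stimulation solution, with fluorescence read for 15 min.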

[4] = NIH 3T3 cells, F508del correction

T1 sequence (P13569 with tags, fused parts or gaps DEL508-508): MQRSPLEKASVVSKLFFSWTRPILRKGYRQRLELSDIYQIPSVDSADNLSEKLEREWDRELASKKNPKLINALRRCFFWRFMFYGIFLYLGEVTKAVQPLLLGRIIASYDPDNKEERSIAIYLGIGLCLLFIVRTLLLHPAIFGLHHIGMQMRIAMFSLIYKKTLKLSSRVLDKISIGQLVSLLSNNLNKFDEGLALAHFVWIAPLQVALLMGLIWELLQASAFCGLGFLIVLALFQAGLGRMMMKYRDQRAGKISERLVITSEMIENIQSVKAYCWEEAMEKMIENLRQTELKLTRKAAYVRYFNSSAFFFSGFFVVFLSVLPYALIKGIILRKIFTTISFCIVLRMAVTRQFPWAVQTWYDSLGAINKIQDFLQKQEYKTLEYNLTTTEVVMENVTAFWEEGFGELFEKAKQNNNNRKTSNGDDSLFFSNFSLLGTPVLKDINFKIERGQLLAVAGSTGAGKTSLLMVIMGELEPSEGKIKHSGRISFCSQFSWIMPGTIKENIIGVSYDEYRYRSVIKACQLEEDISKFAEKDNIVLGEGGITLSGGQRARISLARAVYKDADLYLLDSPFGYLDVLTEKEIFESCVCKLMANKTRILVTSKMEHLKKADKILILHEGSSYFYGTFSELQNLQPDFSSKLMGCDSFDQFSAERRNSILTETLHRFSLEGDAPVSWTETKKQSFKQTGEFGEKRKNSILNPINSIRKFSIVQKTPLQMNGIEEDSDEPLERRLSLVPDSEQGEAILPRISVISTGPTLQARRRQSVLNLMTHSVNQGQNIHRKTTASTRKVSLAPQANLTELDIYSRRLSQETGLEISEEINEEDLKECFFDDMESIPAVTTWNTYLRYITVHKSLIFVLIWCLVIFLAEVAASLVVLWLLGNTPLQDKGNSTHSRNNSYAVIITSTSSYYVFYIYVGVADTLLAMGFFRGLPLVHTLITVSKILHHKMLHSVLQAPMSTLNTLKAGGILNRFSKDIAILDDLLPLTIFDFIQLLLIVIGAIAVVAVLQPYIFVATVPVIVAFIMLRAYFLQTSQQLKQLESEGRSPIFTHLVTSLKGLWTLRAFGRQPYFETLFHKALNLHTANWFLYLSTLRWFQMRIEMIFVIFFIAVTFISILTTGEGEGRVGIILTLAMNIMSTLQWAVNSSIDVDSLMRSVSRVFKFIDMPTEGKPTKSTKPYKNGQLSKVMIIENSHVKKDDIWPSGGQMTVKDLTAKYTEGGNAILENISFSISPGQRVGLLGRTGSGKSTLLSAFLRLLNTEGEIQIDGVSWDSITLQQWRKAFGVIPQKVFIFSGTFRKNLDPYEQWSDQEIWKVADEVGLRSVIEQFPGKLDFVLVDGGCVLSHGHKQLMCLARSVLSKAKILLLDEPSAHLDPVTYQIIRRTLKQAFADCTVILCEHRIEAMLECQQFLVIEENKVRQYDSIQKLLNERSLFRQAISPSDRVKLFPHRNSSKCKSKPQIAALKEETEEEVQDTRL
T2 sequence (P13569 with tags, fused parts or gaps DEL508-508): as above

| Emax ([1]; Table 8) | EC50 ([1]; Table 8) | Ent. A Max Activity ([2]; Table 8) | EC50 ([2]; Table 8) | Ent. B Max Activity ([3]; Table 8) | EC50 ([3]; Table 8) | EC50 [1, 4] | Ent. A Max Activity ([2]; Enteroid Assay A) | EC50 ([2]; Enteroid Assay A) | EC50 ([3]; Enteroid Assay B) | Structure (SMILES) |
| --- | --- | --- | --- | --- | --- | --- | --- | --- | --- | --- |
| > 60% | < 1 µM | +++ (+++ is >60%) | 1 to 3 µM | ++ (++ is 306%) | < 1 µM |  |  |  |  | Cc1cccc(C)c1-c1cc2nc(n1)NS(=O)(=O)c1ccnc(c1)C(=O)N[C@H](CC1CCCCC1)CO2 [Compound 142] |
|  |  |  |  |  |  | < 1 µM | +++ (+++ is >600%) | < 1 µM |  | Cc1ccccc1-c1cc2nc(n1)NS(=O)(=O)c1cccc(c1)C(=O)N[C@H](CC1CCCCC1)CO2 [Compound 316] |
|  |  |  |  |  |  | < 1 µM | +++ (+++ is >600%) | 1 to 3 µM |  | COc1cccc(C)c1-c1cc2nc(n1)NS(=O)(=O)c1cccc(c1)C(=O)N[C@H](CC(C)C)CO2 [Compound 318] |
|  |  |  |  |  |  | < 1 µM | +++ (+++ is >600%) | < 1 µM |  | Cc1ccccc1-c1cc2nc(n1)NS(=O)(=O)c1cccc(c1)C(=O)N[C@H](CC(C)C)CO2 [Compound 329] |
|  |  |  |  |  |  | < 1 µM | +++ (+++ is >600%) | < 1 µM |  | Cc1cccc(C)c1-c1cc2nc(n1)NS(=O)(=O)c1cccc(c1)C(=O)NC[C@@H](Cc1ccccc1)O2 [Compound 347] |
|  |  |  |  |  |  | < 1 µM | +++ (+++ is >600%) | < 1 µM |  | Cc1cccc(C)c1-c1cc2nc(n1)NS(=O)(=O)c1cccc(c1)C(=O)N[C@H](Cc1ccccc1)CO2 [Compound 350] |
| > 60% | < 1 µM | +++ (+++ is >60%) | < 1 µM |  |  |  |  |  |  | Cc1cccc(C)c1-c1cc2nc(n1)NS(=O)(=O)c1cccc(c1)C(=O)N[C@H](C(C)(C)C)CO2 [Compound 361] |
|  |  |  |  |  |  | < 1 µM | +++ (+++ is >600%) | < 1 µM | < 1 µM | Cc1cccc(C)c1-c1cc2nc(n1)NS(=O)(=O)c1cccc(c1)C(=O)N[C@H](CC1CCCCC1)CO2 [Compound 365] |
| > 60% | < 1 µM | +++ (+++ is >60%) | < 1 µM |  |  |  |  |  |  | Cc1cccc(C)c1-c1cc2nc(n1)NS(=O)(=O)c1cccc(n1)C(=O)N[C@H](CC1CCCCC1)CO2 [Compound 411] |
| > 60% | < 1 µM | +++ (+++ is >60%) | < 1 µM |  |  |  |  |  |  | Cc1cccc(C)c1-c1cc2nc(n1)NS(=O)(=O)c1cncc(c1)C(=O)N[C@H](CC1CCCCC1)CO2 [Compound 412] |
| > 60% | < 1 µM | +++ (+++ is >60%) | < 1 µM |  |  |  |  |  |  | Cc1cccc(C)c1-c1cc2nc(n1)NS(=O)(=O)c1cccc(c1)C(=O)N[C@H](C1CCCCC1)CO2 [Compound 493] |
| > 60% | < 1 µM | +++ (+++ is >60%) | < 1 µM |  |  |  |  |  |  | Cc1cccc(C)c1-c1cc2nc(n1)NS(=O)(=O)c1cccc(c1)C(=O)N[C@H](C(CC(C)C)CC(C)C)CO2 [Compound 494] |
